Test results: patent publication US20190358181A1, “METHODS FOR AUTISM SPECTRUM DISORDER PHARMACOTHERAPY” (priority 2017, published 2019)

Tested on: 610 metabolites from 63 biochemical pathways
Assay: Targeted broad-spectrum plasma metabolomic analysis (LC-MS/MS), paired pre-infusion vs post-infusion (2-days and 6-weeks)
Type: in vivo, human
Procedure: Targeted, broad-spectrum, plasma metabolomic analysis of 610 metabolites from 63 biochemical pathways was performed by high performance liquid chromatography and tandem mass spectrometry (LC-MS/MS) on the samples collected from patients in Example 1. Venous blood was collected between the hours of 8 am and 5 pm, at least 3 hours after the last meal, into lithium-heparin vacutainer tubes (BD #367884). Plasma was separated by centrifugation at 900 g×10 minutes at room temperature within one hour of collection. The resulting fresh lithium-heparin plasma was transferred to labeled 1.2 ml or 2.0 ml externally threaded cryotubes with a minimum headspace air gap for storage at −80° C. for analysis. Samples were analyzed on an AB SCIEX QTRAP 5500 triple quadrupole mass spectrometer equipped with a Turbo V electrospray ionization (ESI) source, Shimadzu LC-20A UHPLC system, and a PAL CTC autosampler. Typically, 90 μl of plasma was thawed on ice and transferred to a 1.7 ml Eppendorf tube. Five (5.0) μl of a cocktail containing 25-35 commercial stable isotope internal standards, and 5.0 μl of 57 stable isotope internal standards that were custom-synthesized in E. coli NCM3722, Caenorhabditis elegans N2, and Komagataella phaffii (ATCC 76273; formerly known as Pichia pastoris) by metabolic labeling with 13C-glucose and 13C-bicarbonate, were added, mixed, and incubated for 10 min at 20° C. to permit small molecules and vitamins in the internal standards to associate with plasma binding proteins. Macromolecules (protein, DNA, RNA, glycans, etc.) were precipitated by extraction with 4 volumes (400 μl) of cold (−20° C.), acetonitrile:methanol (50:50) (LCMS grade, Cat #LC015-2.5 and GC230-4, Burdick & Jackson, Honeywell), vortexed vigorously, and incubated on crushed ice for 10 min, then removed by centrifugation at 16,000 g×10 min at 4° C. The supernatants containing the extracted metabolites and internal standards in the resulting 40:40:20 solvent mix of acetonitrile:methanol:water were transferred to labeled cryotubes and stored at −80° C. for LCMS/MS analysis.
LC-MS/MS analysis was performed by scheduled multiple reaction monitoring (sMRM) under Analyst v1.6.2 software control in both negative and positive mode with rapid polarity switching (50 ms). Nitrogen was used for curtain gas (set to 30), collision gas (set to high), ion source gas 1 and 2 (set to 35). The source temperature was 500° C. Spray voltage was set to −4500 V in negative mode and 5500 V in positive mode. The values for Q1 and Q3 mass-to-charge ratios (m/z), declustering potential (DP), entrance potential (EP), collision energy (CE), and collision cell exit potential (CXP) were determined and optimized for each MRM for each metabolite. Ten microliters of extract was injected by PAL CTC autosampler via a 10 μl stainless steel loop into a 250 mm×2.0 mm, 4 μm polymer based NH2 HPLC column (Asahipak NH2P-40 2E, Showa Denko America, Inc., NY) held at 25° C. for chromatographic separation. The mobile phase was solvent A: 95% water with 20 mM (NH4)2CO3 (Sigma, Fluka Cat #74415-250G-F), 5% acetonitrile, and 38 mM NH4OH (Sigma, Fluka Cat #17837-100ML), final pH 9.75; solvent B: 100% acetonitrile. Separation was achieved using the following gradient: 0-3.5 min: 95% B, 3.6-8 min: 85% B, 8.1-13 min: 75% B, 13.5-35 min: 0% B, 36-46 min: 95% B, 46.1 min: end. The flow rate was 200 μl/min. Pump pressures ranged from 920-2600 psi over the course of the gradient. All the samples were kept at 4° C. during analysis. The chromatographic peaks were identified using MultiQuant (v3.0, Sciex), confirmed by manual inspection, and the peak areas integrated. […]

[1] = S-Adenosylhomocysteine, plasma, 6-weeks
[2] = SAM, SAH, Methionine, Cysteine, Glutathione, 2-days
[3] = SAM, SAH, Methionine, Cysteine, Glutathione, 6-weeks
[4] = SM(d18:1/18:2), plasma, 6-weeks
[5] = SM(d18:1/26:0 OH), plasma, 6-weeks
[6] = Sphingomyelin Metabolism, 2-days
[7] = Sphingomyelin Metabolism, 6-weeks
[8] = Subtotal, all pathways, 6-weeks
[9] = Subtotals, all pathways, 2-days
[10] = Taurine, Hypotaurine Metabolism, 2-days
[11] = Tryptophan, Kynurenine, Serotonin, Melatonin, 6-weeks
[12] = Tryptophan, Kynurenine, Serotonin, 2-days
[13] = Tyrosine and Phenylalanine Metabolism, 2-days
[14] = Tyrosine and Phenylalanine Metabolism, 6-weeks
[15] = Vitamin C (Ascorbate) Metabolism, 6-weeks
[16] = Vitamin D (Calciferol) Metabolism, 2-days
[17] = cis-aconitic acid, plasma, 6-weeks
[18] = lsovalerylglycine, plasma, 6-weeks
[19] = p-Hydroxyphenylacetic acid, plasma, 6-weeks
[20] = plasma, 2-days after infusion vs pre-infusion, Amino Acid Metabolism (not otherwise covered)
[21] = plasma, 2-days after infusion vs pre-infusion, Amino-Sugar, Galactose, & Non-Glucose Metabolism
[22] = plasma, 2-days after infusion vs pre-infusion, Bile Salt Metabolism
[23] = plasma, 2-days after infusion vs pre-infusion, Bioamines and Neurotransmitter Metabolism
[24] = plasma, 2-days after infusion vs pre-infusion, Branch Chain Amino Acid Metabolism
[25] = plasma, 2-days after infusion vs pre-infusion, Cardiolipin Metabolism
[26] = plasma, 2-days after infusion vs pre-infusion, Ceramide Metabolism

Cc1ccc(C(=O)Nc2ccc(S(=O)(=O)O)c3cc(S(=O)(=O)O)cc(S(=O)(=O)O)c23)cc1NC(=O)c1cccc(NC(=O)Nc2cccc(C(=O)Nc3cc(C(=O)Nc4ccc(S(=O)(=O)O)c5cc(S(=O)(=O)O)cc(S(=O)(=O)O)c45)ccc3C)c2)c1 [Suramin, suramin]
Fraction of Impact (VIP Score) Explained (% of 119.7) (Purine Metabolism, 2-days): 15%
Impact (Sum VIP Score) (Purine Metabolism, 2-days): 17.6
Increased (Purine Metabolism, 2-days): 4
Observed Hits in the Top 61 Metabolites (Purine Metabolism, 2-days): 9
Decreased (Purine Metabolism, 6-weeks): 2
Fold Enrichment (Obs/Exp) (Purine Metabolism, 6-weeks): 1.7
Fraction of Impact (VIP Score) Explained (% of 94.6) (Purine Metabolism, 6-weeks): 11%
Impact (Sum VIP Score) (Purine Metabolism, 6-weeks): 10.2
Increased (Purine Metabolism, 6-weeks): 3
Observed Hits in the Top 48 Metabolites (Purine Metabolism, 6-weeks): 5
Linear Ratio (Purine, plasma, 6-weeks): 1.307
VIP Score (Purine, plasma, 6-weeks): 1.980
Z Abs (Purine, plasma, 6-weeks): 1.650
Z Score (Purine, plasma, 6-weeks): 1.650
Decreased (Pyrimidine Metabolism, 2-days): 1
Fold Enrichment (Obs/Exp) (Pyrimidine Metabolism, 2-days): 1.6
Fraction of Impact (VIP Score) Explained (% of 119.7) (Pyrimidine Metabolism, 2-days): 4%
Impact (Sum VIP Score) (Pyrimidine Metabolism, 2-days): 4.3
Increased (Pyrimidine Metabolism, 2-days): 1
Observed Hits in the Top 61 Metabolites (Pyrimidine Metabolism, 2-days): 2
Decreased (Pyrimidine Metabolism, 6-weeks): 0
Fold Enrichment (Obs/Exp) (Pyrimidine Metabolism, 6-weeks): 2.0
Fraction of Impact (VIP Score) Explained (% of 94.6) (Pyrimidine Metabolism, 6-weeks): 4%
Impact (Sum VIP Score) (Pyrimidine Metabolism, 6-weeks): 4.2
Increased (Pyrimidine Metabolism, 6-weeks): 2
Observed Hits in the Top 48 Metabolites (Pyrimidine Metabolism, 6-weeks): 2
Linear Ratio [1]: 1.417
VIP Score [1]: 1.894
Z Abs [1]: 0.971
Z Score [1]: 0.971
Decreased [2]: 1
Fold Enrichment (Obs/Exp) [2]: 1.4
Fraction of Impact (VIP Score) Explained (% of 119.7) [2]: 5%
Impact (Sum VIP Score) [2]: 5.6
Increased [2]: 2
Observed Hits in the Top 61 Metabolites [2]: 3
Decreased [3]: 0
Fold Enrichment (Obs/Exp) [3]: 3.0
Fraction of Impact (VIP Score) Explained (% of 94.6) [3]: 10%
Impact (Sum VIP Score) [3]: 9.5
Increased [3]: 5
Observed Hits in the Top 48 Metabolites [3]: 5
Linear Ratio [4]: 1.424
VIP Score [4]: 1.508
Z Abs [4]: 0.750
Z Score [4]: 0.750
Linear Ratio [5]: 1.671
VIP Score [5]: 2.622
Z Abs [5]: 2.002
Z Score [5]: 2.002
Decreased [6]: 2
Fold Enrichment (Obs/Exp) [6]: 0.4
Fraction of Impact (VIP Score) Explained (% of 119.7) [6]: 3%
Impact (Sum VIP Score) [6]: 3.6
Increased [6]: 0
Observed Hits in the Top 61 Metabolites [6]: 2
Decreased [7]: 0
Fold Enrichment (Obs/Exp) [7]: 0.5
Fraction of Impact (VIP Score) Explained (% of 94.6) [7]: 4%
Impact (Sum VIP Score) [7]: 4.1
Increased [7]: 2
Observed Hits in the Top 48 Metabolites [7]: 2
Decreased [8]: 6
Increased [8]: 42
Decreased [9]: 23
Increased [9]: 38
Decreased [10]: 1
Fold Enrichment (Obs/Exp) [10]: 3.5
Fraction of Impact (VIP Score) Explained (% of 119.7) [10]: 2%
Impact (Sum VIP Score) [10]: 2.0
Increased [10]: 0
Observed Hits in the Top 61 Metabolites [10]: 1
Linear Ratio (Tiglylglycine, plasma, 6-weeks): 1.302
VIP Score (Tiglylglycine, plasma, 6-weeks): 1.878
Z Abs (Tiglylglycine, plasma, 6-weeks): 1.310
Z Score (Tiglylglycine, plasma, 6-weeks): 1.310
Decreased [11]: 0
Fold Enrichment (Obs/Exp) [11]: 1.5
Fraction of Impact (VIP Score) Explained (% of 94.6) [11]: 2%
Impact (Sum VIP Score) [11]: 2.1
Increased [11]: 1
Observed Hits in the Top 48 Metabolites [11]: 1
Decreased [12]: 0
Fold Enrichment (Obs/Exp) [12]: 1.2
Fraction of Impact (VIP Score) Explained (% of 119.7) [12]: 1%
Impact (Sum VIP Score) [12]: 1.6
Increased [12]: 1
Observed Hits in the Top 61 Metabolites [12]: 1
Decreased [13]: 0
Fold Enrichment (Obs/Exp) [13]: 2.4
Fraction of Impact (VIP Score) Explained (% of 119.7) [13]: 2%
Impact (Sum VIP Score) [13]: 1.8
Increased [13]: 1
Observed Hits in the Top 61 Metabolites [13]: 1
Decreased [14]: 0
Fold Enrichment (Obs/Exp) [14]: 6.0
Fraction of Impact (VIP Score) Explained (% of 94.6) [14]: 4%
Impact (Sum VIP Score) [14]: 3.7
Increased [14]: 2
Observed Hits in the Top 48 Metabolites [14]: 2
Linear Ratio (Uridine, plasma, 6-weeks): 1.244
VIP Score (Uridine, plasma, 6-weeks): 1.764
Z Abs (Uridine, plasma, 6-weeks): 0.928
Z Score (Uridine, plasma, 6-weeks): 0.928
Decreased [15]: 0
Fold Enrichment (Obs/Exp) [15]: 4.5
Fraction of Impact (VIP Score) Explained (% of 94.6) [15]: 2%
Impact (Sum VIP Score) [15]: 2.0
Increased [15]: 1
Observed Hits in the Top 48 Metabolites [15]: 1
Decreased [16]: 1
Fold Enrichment (Obs/Exp) [16]: 2.4
Fraction of Impact (VIP Score) Explained (% of 119.7) [16]: 3%
Impact (Sum VIP Score) [16]: 3.1
Increased [16]: 0
Observed Hits in the Top 61 Metabolites [16]: 1
Linear Ratio [17]: 1.278
VIP Score [17]: 1.852
Z Abs [17]: 0.928
Z Score [17]: 0.928
metabolites significantly changed by suramin (total) (day 2): 61
Linear Ratio [18]: 2.027
VIP Score [18]: 1.888
Z Abs [18]: 0.901
Z Score [18]: 0.901
Linear Ratio [19]: 1.306
VIP Score [19]: 2.203
Z Abs [19]: 2.226
Z Score [19]: 2.226
1-Methyl-adenine (1-MA) (plasma): increased
AICAR (plasma): increased
cAMP (plasma): decreased
dGDP (plasma): decreased
Linear Ratio, Alanine [20]: 1.193
VIP Score, Alanine [20]: 1.776
Z Abs, Alanine [20]: 1.066
Z Score, Alanine [20]: 1.066
Linear Ratio, Myoinositol [21]: 1.286
VIP Score, Myoinositol [21]: 1.645
Z Abs, Myoinositol [21]: 0.785
Z Score, Myoinositol [21]: 0.785
Linear Ratio, Chenodeoxyglycocholic acid [22]: 2.787
Linear Ratio, Glycocholic acid [22]: 2.344
Linear Ratio, Taurocholic acid [22]: 2.183
Linear Ratio, Taurodeoxycholic acid Pool [22]: 2.614
VIP Score, Chenodeoxyglycocholic acid [22]: 3.171
VIP Score, Glycocholic acid [22]: 3.090
VIP Score, Taurocholic acid [22]: 2.615
VIP Score, Taurodeoxycholic acid Pool [22]: 3.048
Z Abs, Chenodeoxyglycocholic acid [22]: 1.610
Z Abs, Glycocholic acid [22]: 2.020
Z Abs, Taurocholic acid [22]: 1.102
Z Abs, Taurodeoxycholic acid Pool [22]: 1.326
Z Score, Chenodeoxyglycocholic acid [22]: 1.610
Z Score, Glycocholic acid [22]: 2.020
Z Score, Taurocholic acid [22]: 1.102
Z Score, Taurodeoxycholic acid Pool [22]: 1.326
Linear Ratio, Dopamine [23]: 0.877
Linear Ratio, L-Glutamic acid [23]: 0.797
VIP Score, Dopamine [23]: 1.653
VIP Score, L-Glutamic acid [23]: 1.641
Z Abs, Dopamine [23]: 0.642
Z Abs, L-Glutamic acid [23]: 0.619
Z Score, Dopamine [23]: −0.642
Z Score, L-Glutamic acid [23]: −0.619
Linear Ratio, Isovalerylglycine [24]: 1.951
Linear Ratio, L-Isoleucine [24]: 1.094
Linear Ratio, L-Valine [24]: 1.165
Linear Ratio, Tiglylglycine [24]: 1.141
VIP Score, Isovalerylglycine [24]: 1.783
VIP Score, L-Isoleucine [24]: 2.136
VIP Score, L-Valine [24]: 1.808
VIP Score, Tiglylglycine [24]: 1.562
Z Abs, Isovalerylglycine [24]: 0.852
Z Abs, L-Isoleucine [24]: 0.815
Z Abs, L-Valine [24]: 0.749
Z Abs, Tiglylglycine [24]: 0.657
Z Score, Isovalerylglycine [24]: 0.852
Z Score, L-Isoleucine [24]: 0.815
Z Score, L-Valine [24]: 0.749
Z Score, Tiglylglycine [24]: 0.657
Linear Ratio, CL(18:2/18:2/18:2/18:1) [25]: 1.102
Linear Ratio, CL(18:2/18:2/18:2/18:2) [25]: 1.181
Linear Ratio, Ceramide(d18:1/18:2) [26]: 1.337
VIP Score, Ceramide(d18:1/18:2) [26]: 1.521
